Laboratory results from patent publication US11254690B2, “PTEFb inhibiting macrocyclic compounds” (BAYER AKTIENGESELLSCHAFT, priority 2017, dated 2022).

Assays:
[1] = biological target: T1, CDK2/CycE (Homo sapiens, UniProt P24941); experiment: CDK2/CycE high ATP kinase assay (TR-FRET, 2 mM ATP); assay type: biochemical; details: Method 2b
T1 construct: GST; purchased ProQinase GmbH (Freiburg, Germany); host or cells: insect cells (Sf9)
Summary of the method: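 Recombinant GST-tagged human CDK2 and CycE from Sf9 cells (about 10 ng/ml), biotinylated peptide substrate, 2 mM ATP, Tris pH 8.0 buffer; compound pre-incubated 15 min at 22° C. Phospho-substrate detected by TR-FRET with anti-RB(pSer807/pSer811) antibody, 665/622 nm ratio; normalised to no-inhibitor and no-enzyme controls.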

[2] = test system: DU145 cells; experiment: Proliferation assay, DU145; assay type: cell-based; details: Homo sapiens, DU-145, 96 h; 4 days, crystal violet; read-out: Inhibition of DU145 cell proliferation IC50
Protocol: (§1) Cultivated tumour cells (HeLa, human cervical tumour cells, ATCC CCL-2; NCI-H460, human non-small cell lung carcinoma cells, ATCC HTB-177; DU 145, hormone-independent human prostate carcinoma cells, ATCC HTB-81; HeLa-MaTu-ADR, multidrug-resistant human cervical carcinoma cells, EPO-GmbH Berlin; Caco-2, human colorectal carcinoma cells, ATCC HTB-37; B16F10, mouse melanoma cells, ATCC CRL-6475) were plated at a density of 5,000 cells/well (DU145, HeLa-MaTu-ADR), 3,000 cells/well (NCI-H460, HeLa), 1,500 cells/well (Caco-2), or 1,000 cells/well (B16F10) in a 96-well multititer plate in 200 μL of their respective growth medium supplemented 10% fetal calf serum. After 24 hours, the cells of one plate (zero-point plate) were stained with crystal violet (see below), while the medium of the other plates was supplemented with the test substances in various concentrations (0 μM, as well as in the range of 0.0001-10 μM; the final concentration of the solvent dimethyl sulfoxide was adjusted to 0.1%) using a Hewlett-Packard HP D300 Digital Dispenser. The cells were incubated for 4 days in the presence of test substances. Cell proliferation was determined by staining the cells with crystal violet: the cells were fixed by adding 20 μl/measuring point of an 11% glutaric aldehyde solution for 15 minutes at room temperature. After three washing cycles of the fixed cells with water, the plates were dried at room temperature. The cells were stained by adding 100 μl/measuring point of a 0.1% crystal violet solution (pH 3.0). After three washing cycles of the stained cells with water, the plates were dried at room temperature. The dye was dissolved by adding 100 μl/measuring point of a 10% acetic acid solution. The extinction was determined by photometry at a wavelength of 595 nm. The change of cell number, in percent, was calculated by normalization of the measured values to the extinction values of the zero-point plate (=0%) and the extinction of the untreated ([…]) cells (=100%). The IC50 values (inhibitory concentration at 50% of maximal effect) were determined by means of a 4 parameter fit. A2780 human ovarian carcinoma cells (ECACC #93112519) and non-adherent MOLM-13 human acute myeloid leukemia cells (DSMZ ACC 554) were seeded at a density of 3,000 cell/well (A2780) or 5,000 cells/well (MOLM-13) in a 96-well multititer plate in 150 μL of growth medium supplemented 10% fetal calf serum. After 24 hours, cell viability of one plate (zero-point plate) was determined with the Cell Titre-Glo Luminescent Cell Viability Assay (Promega), while the medium of the other plates was supplemented with the test substances in various concentrations (0 μM, as well as in the range of 0.0001-10 μM; the final concentration of the solvent dimethyl sulfoxide was adjusted to 0.1%) using a Hewlett-Packard HP D300 Digital Dispenser. Cell viability was assessed after 72-hour exposure with the Cell Titre-Glo Luminescent Cell Viability Assay (Promega). IC50 values (inhibitory concentration at 50% of maximal effect) were determined by means of a 4 parameter fit on measurement data which were normalized to vehicle (DMSO) treated cells (=100%) and measurement readings taken immediately before compound exposure (=0%).

[3] = test system: HeLa-MaTu-ADR cells; experiment: Proliferation assay, HeLa-MaTu-ADR; assay type: cell-based; details: Homo sapiens, 96 h; 4 days, crystal violet; read-out: Inhibition of HeLa-MaTu-ADR cell proliferation IC50
Protocol: as §1

[4] = test system: Caco-2 cells; experiment: Proliferation assay, Caco-2; assay type: cell-based; details: Homo sapiens, Caco-2, 96 h; 4 days, crystal violet; read-out: Inhibition of Caco-2 cell proliferation IC50
Protocol: as §1

[5] = test system: NCI-H460 cells; experiment: Proliferation assay, NCI-H460; assay type: cell-based; details: Homo sapiens, NCI-H460, 96 h; 4 days, crystal violet; read-out: Inhibition of NCI-H460 cell proliferation IC50
Protocol: as §1

Work on CS(=N)(=O)Cc1cc2nc(c1)OCCCCOc1cc(ccc1F)-c1cc(ncc1F)N2 (racemic) [Example 2, (rac)-3,20-difluoro-10-[(S-methylsulfonimidoyl)methyl]-13,18-dioxa-5,7,24-triazatetracyclo[17.3.1.1^2,6.1^8,12]pentacosa-1(23),2(25),3,5,8(24),9,11,19,21-nonaene] yielded an IC50 [1] of 737 nM, an IC50 [2] of 85 nM and an IC50 [3] of 78 nM. It also gave an IC50 [4] of 96 nM and an IC50 [5] of 157 nM.
With CC(C)(C)OC(=O)N=S(C)(=O)Cc1cc2cc(c1)OCCCCOc1cc(ccc1F)-c1nc(ncc1F)N2 (racemic) [Example 3, (rac)-tert-butyl [{[3,20-difluoro-13,18-dioxa-5,7,25-triazatetracyclo[17.3.1.1^2,6.1^8,12]pentacosa-1(23),2(25),3,5,8(24),9,11,19,21-nonaen-10-yl]methyl}(methyl)oxido-λ^6-sulfanylidene]carbamate] the IC50 [1] was greater than 20000 nM, the IC50 [2] was 206 nM and the IC50 [3] was 218 nM. It also gave an IC50 [4] of 163 nM and an IC50 [5] of 267 nM.
Compound CS(=N)(=O)Cc1cc2cc(c1)OCCCCOc1cc(ccc1F)-c1nc(ncc1F)N2 (racemic) [Example 4, (rac)-3,20-difluoro-10-[(S-methylsulfonimidoyl)methyl]-13,18-dioxa-5,7,25-triazatetracyclo[17.3.1.1^2,6.1^8,12]pentacosa-1(23),2(25),3,5,8(24),9,11,19,21-nonaene] has an IC50 [1] of 1540 nM, an IC50 [2] of 138 nM and an IC50 [3] of 140 nM. It also gave an IC50 [4] of 177 nM and an IC50 [5] of 331 nM.
Work on CC(C)(C)OC(=O)N=S(C)(=O)Cc1cc2cc(c1)OCCCCCOc1cc(ccc1F)-c1nc(ncc1F)N2 (racemic) [Example 5, (rac)-tert-butyl [{[3,21-difluoro-13,19-dioxa-5,7,26-triazatetracyclo[18.3.1.1^2,6.1^8,12]hexacosa-1(24),2(26),3,5,8(25),9,11,20,22-nonaen-10-yl]methyl}(methyl)oxido-λ^6-sulfanylidene]carbamate] yielded an IC50 [1] greater than 20000 nM, an IC50 [2] of 585 nM and an IC50 [3] of 1000 nM. The IC50 [4] was 658 nM and the IC50 [5] was 479 nM.
For CS(=N)(=O)Cc1cc2cc(c1)OCCCCCOc1cc(ccc1F)-c1nc(ncc1F)N2 (racemic) [Example 6, (rac)-3,21-difluoro-10-[(S-methylsulfonimidoyl)methyl]-13,19-dioxa-5,7,26-triazatetracyclo[18.3.1.1^2,6.1^8,12]hexacosa-1(24),2(26),3,5,8(25),9,11,20,22-nonaene], the IC50 [1] was 16200 nM, the IC50 [2] was 121 nM and the IC50 [3] was 169 nM. For the same compound, the IC50 [4] was 144 nM and the IC50 [5] was 277 nM.
CS(=N)(=O)Cc1cc2cc(c1)OCCCCOc1c(F)ccc(c1F)-c1nc(ncc1F)N2 (racemic) [Example 8, (rac)-3,20,23-trifluoro-10-[(S-methylsulfonimidoyl)methyl]-13,18-dioxa-5,7,25-triazatetracyclo[17.3.1.1^2,6.1^8,12]pentacosa-1(23),2(25),3,5,8(24),9,11,19,21-nonaene] was tested, and the IC50 [1] was 6520 nM, the IC50 [2] was 196 nM and the IC50 [3] was 179 nM. For the same compound, the IC50 [4] was 181 nM and the IC50 [5] was 217 nM.
Compound CS(=N)(=O)Cc1cc2cc(c1)OCCCOc1cc(ccc1F)-c1nc(ncc1F)N2 (racemic) [Example 10, (rac)-3,19-difluoro-10-[(S-methylsulfonimidoyl)methyl]-13,17-dioxa-5,7,24-triazatetracyclo[16.3.1.1^2,6.1^8,12]tetracosa-1(22),2(24),3,5,8(23),9,11,18,20-nonaene] has an IC50 [1] of 4750 nM, an IC50 [2] of 180 nM and an IC50 [3] of 155 nM. It also gave an IC50 [4] of 159 nM and an IC50 [5] of 238 nM.
Compound CC1CCCOc2cc(ccc2F)-c2cc(ncc2F)Nc2cc(CS(C)(=O)=O)cc(n2)O1 (racemic) [Example 28, 3,20-difluoro-14-methyl-10-[(methylsulfonyl)methyl]-13,18-dioxa-5,7,24-triazatetracyclo[17.3.1.1^2,6.1^8,12]pentacosa-1(23),2(25),3,5,8(24),9,11,19,21-nonaene] has an IC50 [1] of 360 nM.
Work on CC1CCCOc2cc(ccc2F)-c2cc(ncc2F)Nc2cc(CS(C)(=N)=O)cc(n2)O1 (single isomer, unassigned) [Example 16, 3,20-difluoro-14-methyl-10-[(S-methylsulfonimidoyl)methyl]-13,18-dioxa-5,7,24-triazatetracyclo[17.3.1.1^2,6.1^8,12]pentacosa-1(23),2(25),3,5,8(24),9,11,19,21-nonaene] yielded an IC50 [1] of 144 nM.
CC1CCCOc2cc(ccc2F)-c2cc(ncc2F)Nc2cc(CS(C)(=N)=O)cc(n2)O1 (single isomer, unassigned) [Example 17, 3,20-difluoro-14-methyl-10-[(S-methylsulfonimidoyl)methyl]-13,18-dioxa-5,7,24-triazatetracyclo[17.3.1.1^2,6.1^8,12]pentacosa-1(23),2(25),3,5,8(24),9,11,19,21-nonaene] gave an IC50 [1] of 132 nM.
With CC1CCCCOc2cc(ccc2F)-c2cc(ncc2F)Nc2cc(CS(C)(=N)=O)cc(n2)O1 (single isomer, unassigned) [Example 21, 3,21-difluoro-14-methyl-10-[(S-methylsulfonimidoyl)methyl]-13,19-dioxa-5,7,25-triazatetracyclo[18.3.1.1^2,6.1^8,12]hexacosa-1(24),2(26),3,5,8(25),9,11,20,22-nonaene] the IC50 [1] was 2450 nM.
For CC1CCCCOc2cc(ccc2F)-c2cc(ncc2F)Nc2cc(CS(C)(=N)=O)cc(n2)O1 (single isomer, unassigned) [Example 22, 3,21-difluoro-14-methyl-10-[(S-methylsulfonimidoyl)methyl]-13,19-dioxa-5,7,25-triazatetracyclo[18.3.1.1^2,6.1^8,12]hexacosa-1(24),2(26),3,5,8(25),9,11,20,22-nonaene], the IC50 [1] was 501 nM.
